Key:
[1] = system: arterial pressure of rats with spontaneous hypertension; experiment: hypotensive effect, intraperitoneal, spontaneously hypertensive rats; type: in vivo
Experimental: The study of the hypotensive effect was carried out in experiments on spontaneously hypertensive male rats of the Akamoto-Aoki line aged 20-25 weeks. The prior art preparation-nifedipine was used for the purpose of comparison. The measurement of the arterial pressure was effected on the tail vein of the rats by the indirect method. The animals were divided into groups (10 in each) and trained for two weeks with the view to ensure their adaptation to the unit for the measurement of the arterial pressure. The level of the arterial pressure prior to administration of the test preparations was measured three times: two days, one day and directly prior to administration of the test preparations. The preparation was administered in the form of a 2.5% aqueous solution, nifedipine--in the form of a 2.5% suspension in Twin-80 intraperitoneally. […]

[2] = system: hemodynamic effects of acetylcholine, neoepinephrine, noradrenaline, histamine and angiotensin; experiment: influence on hemodynamic effects of acetylcholine, noradrenaline, neoepinephrine, angiotensin and histamine in narcotized cats; type: in vivo
Experimental: (§1) The effect of the pharmaceutical preparation according to the present invention on the arterial pressure and vegetative responses was studied in acute experiments on cats with a mass of 2.8-4.0 kg narcotized with α-glucochloralose (90 mg/kg) and urethane (100 mg/kg, intraperitoneally). The breathing, arterial pressure in the common carotid artery and electrocardiogram of the second standard lead were recorded.
(§2) The influence of the preparation according to the present invention on hemodynamic effects of acetylcholine (0.1 μg/kg) neoepinephrine (0.2 μg/kg), noradrenaline (1 μg/kg), histamine (1.5 μg/kg) and angiotensin (0.1 μg/kg) was also studied. The preparation of this invention was intravenously administered in the form of a 2.5% solution in doses of 0.5 to 10 mg/kg. The peripheral part of the vagus nerve was irritated by supromaximum pulses with the frequency of 30 Hz and duration of 0.1 ms.

[3] = system: arterial pressure and vegetative responses in narcotized animals; experiment: arterial pressure, breathing and electrocardiogram in narcotized cats, intravenous; type: in vivo
Experimental: as §1, §2

[4] = side effects or contraindications on administration
[5] = system: arterial pressure of spontaneously hypertensive rats; experiment: effect of the oral form on arterial pressure, spontaneously hypertensive rats; type: in vivo
Experimental: Also studied was the efficiency of the oral form of the preparation according to the present invention. […] The efficiency was studied within the range of doses from 50 to 100 mg/kg.

[6] = system: arterial pressure of spontaneously hypertensive rats; experiment: as above; type: in vivo; remark: listed apart in the source
[7] = 25 mg/kg intraperitoneally, 30 minutes
[8] = 25 mg/kg intraperitoneally, 1 hour
[9] = 25 mg/kg intraperitoneally, 2 hours
[10] = 25 mg/kg intraperitoneally, 4 hours
[11] = 50 mg/kg intraperitoneal, 30 minutes
[12] = 50 mg/kg intraperitoneally, 30 minutes
[13] = 50 mg/kg intraperitoneally, 1 hour
[14] = 50 mg/kg intraperitoneally, 2 hours
[15] = 50 mg/kg intraperitoneally, 4 hours
[16] = 50 mg/kg intraperitoneally, 24 hours
[17] = 24 hours after a single-time administration

SMILES: C[N+]1(C)CC(CC(=O)[O-])C(=O)N1 (centres unmarked) [Preparation of this invention, (1,1-dimethyl-3-oxopyrazolin-1-io-4-yl)acetate]
- Variation of arterial pressure, diastolic [1, 7]: -1 % of the initial
- Variation of arterial pressure, systolic [1, 7]: -3 % of the initial
- Variation of arterial pressure, diastolic [1, 8]: -7 % of the initial
- Variation of arterial pressure, systolic [1, 8]: -5 % of the initial
- Variation of arterial pressure, diastolic [1, 9]: -19 % of the initial
- Variation of arterial pressure, systolic [1, 9]: -3 % of the initial
- Variation of arterial pressure, diastolic [1, 10]: -18 % of the initial
- Variation of arterial pressure, systolic [1, 10]: -7 % of the initial
- reduction of diastolic pressure [1, 11]: 23.5%
- reduction of systolic pressure [1, 11]: 17.6%
- Variation of arterial pressure, diastolic [1, 12]: -23 % of the initial
- Variation of arterial pressure, systolic [1, 12]: -17 % of the initial
- Variation of arterial pressure, diastolic [1, 13]: -28 % of the initial
- Variation of arterial pressure, systolic [1, 13]: -12 % of the initial
- Variation of arterial pressure, diastolic [1, 14]: -26 % of the initial
- Variation of arterial pressure, systolic [1, 14]: -18 % of the initial
- Variation of arterial pressure, diastolic [1, 15]: -41 % of the initial
- Variation of arterial pressure, systolic [1, 15]: -21 % of the initial
- Variation of arterial pressure, diastolic [1, 16]: -19 % of the initial
- Variation of arterial pressure, systolic [1, 16]: -17 % of the initial
- reduction of diastolic pressure [1, 17]: 28.5%
- reduction of systolic pressure [1, 17]: 18.8%
- difference between systolic and diastolic pressures ([1]; see Table 1): increases the difference between systolic and diastolic pressures
- Hemodynamic effect, Neoepinephrine ([2]; 10 mg/kg intravenously, neoepinephrine 0.2 μg/kg): -35%
- Hemodynamic effect, Noradrenaline ([2]; 0.5-3.0 mg/kg intravenously, noradrenaline 1 μg/kg): -10%
- blocking of α- and β-receptors and the cholinergic system ([2]; higher doses (10 mg/kg)): substantially blocks both α- and β-receptors, as well as the cholinergic system
- direct influence on effects of angiotensin and histamine ([2]; higher doses (10 mg/kg)): does not provide any direct influence on effects of angiotensin and histamine
- Variation of arterial pressure ([3]; 5 mg/kg intravenously): -16%
- peripheral resistance ([3]; in vivo): reduction of peripheral resistance
- effect on breathing and electrocardiogram ([3]; intravenously, 0.5 to 10 mg/kg): does not substantially affect the breathing and electrocardiogram of the animals
- side effects or contraindications [4]: No side effects or contraindications
- Variation of arterial pressure, systolic ([5]; 50 mg/kg per os, 4 hours): -3 % of the initial
- Variation of arterial pressure, diastolic ([5]; 75 mg/kg per os, 1 hour): -17 % of the initial
- Variation of arterial pressure, systolic ([5]; 75 mg/kg per os, 1 hour): -10 % of the initial
- Variation of arterial pressure, diastolic ([5]; 75 mg/kg per os, 2 hours): -18 % of the initial
- superiority in duration of action over nifedipine ([5]; 75 mg/kg per os, vs nifedipine): at least 3 times
- Variation of arterial pressure, diastolic ([5]; 100 mg/kg per os, 1 hour): -8 % of the initial
- Variation of arterial pressure, systolic ([5]; 100 mg/kg per os, 1 hour): -7 % of the initial
- Variation of arterial pressure, diastolic ([5]; 100 mg/kg per os, 24 hours): -3 % of the initial
- Variation of arterial pressure, diastolic ([6]; 50 mg/kg per os, 30 minutes): -10 % of the initial
- Variation of arterial pressure, systolic ([6]; 50 mg/kg per os, 30 minutes): -3 % of the initial
- Variation of arterial pressure, diastolic ([6]; 50 mg/kg per os, 1 hour): +2 % of the initial
- Variation of arterial pressure, diastolic ([6]; 50 mg/kg per os, 2 hours): -8 % of the initial
- Variation of arterial pressure, systolic ([6]; 50 mg/kg per os, 2 hours): -5 % of the initial
- Variation of arterial pressure, diastolic ([6]; 50 mg/kg per os, 4 hours): -3 % of the initial
- Variation of arterial pressure, diastolic ([6]; 50 mg/kg per os, 24 hours): -2 % of the initial
- Variation of arterial pressure, systolic ([6]; 50 mg/kg per os, 24 hours): -7 % of the initial
- Variation of arterial pressure, diastolic ([6]; 75 mg/kg per os, 30 minutes): -12 % of the initial
- Variation of arterial pressure, systolic ([6]; 75 mg/kg per os, 30 minutes): -16 % of the initial
- Variation of arterial pressure, systolic ([6]; 75 mg/kg per os, 2 hours): -18 % of the initial
- Variation of arterial pressure, diastolic ([6]; 75 mg/kg per os, 4 hours): -11 % of the initial
- Variation of arterial pressure, systolic ([6]; 75 mg/kg per os, 4 hours): -8 % of the initial
- Variation of arterial pressure, diastolic ([6]; 75 mg/kg per os, 24 hours): -22 % of the initial
- Variation of arterial pressure, systolic ([6]; 75 mg/kg per os, 24 hours): -20 % of the initial
- stable reduction of the arterial pressure ([6]; 75 mg/kg per os, 24 hours after administration): about 20%
- Variation of arterial pressure, diastolic ([6]; 100 mg/kg per os, 30 minutes): -11 % of the initial
- Variation of arterial pressure, systolic ([6]; 100 mg/kg per os, 30 minutes): -13 % of the initial
- Variation of arterial pressure, diastolic ([6]; 100 mg/kg per os, 2 hours): -7 % of the initial
- Variation of arterial pressure, systolic ([6]; 100 mg/kg per os, 2 hours): -8 % of the initial
- Variation of arterial pressure, diastolic ([6]; 100 mg/kg per os, 4 hours): -13 % of the initial
- Variation of arterial pressure, systolic ([6]; 100 mg/kg per os, 4 hours): -13 % of the initial
- Variation of arterial pressure, systolic ([6]; 100 mg/kg per os, 24 hours): -12 % of the initial
